Common to all, as to type: in vivo
Data set [1] deals with Echinochloa oryzacola Vasing. Briefly: Test Example 1: herbicidal activity, application before weed generation in submerged conditions (symbol A). Particulars: application herbicide amount 320 g/ha. In short, it runs like this:
(§1)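 Weed control was rated three weeks after treatment on a 0–5 scale, from 5% or lower up to 90% or more. Pre-emergence water-surface application of diluted emulsion at a predetermined rate was made on the day of sowing, in flooded (4 cm water) pots containing rice seedlings, kept at 25–30 °C under glass.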

A further data set deals with Scirpus juncoides. Briefly: Test Example 1: herbicidal activity, application before weed generation in submerged conditions (symbol B). As to conditions: application herbicide amount 320 g/ha. In short, it runs like this: as §1
In the next data set the test system is transplanted rice plant. Kind of data set: Test Example 1: effect on crop, application before weed generation in submerged conditions (symbol a). Particulars: application herbicide amount 320 g/ha. The procedure, abridged:
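Rice at 2.5 leaf stage transplanted into submerged soil (4 cm depth) sown with three weed species; herbicide applied before weed emergence.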

The test system of another data set is Cyperus difformis. Kind of data set: Test Example 3: herbicidal effect by foliage application, Wagner pot (symbol E). Particulars: application herbicide amount 320 g/ha. In short, it runs like this:
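Seeds sown in alluvial soil kept under 0.1–0.5 cm water, greenhouse 25–30 °C; 14 d growth. Leaves treated by small sprayer with water-diluted emulsion at a predetermined rate. Effect graded by set scale, 3 weeks.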

Data set [2] concerns Alopecurus myosuroides. Briefly: Test Example 4: herbicidal effect by soil treatment (symbol J). Particulars: application herbicide amount 320 g/ha. The procedure, abridged:
(§2)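 Seeds were sown in sterilized diluvial soil, covered with about 1.5 cm of soil, and the soil surface was sprayed with a water-diluted emulsion of the compound at a predetermined rate. Plants grew in a greenhouse at 25° C. to 30° C.; effects were scored visually 3 weeks after application.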

In the next data set the test system is Stellaria media. Kind of data set: Test Example 4: herbicidal effect by soil treatment (symbol P). As to conditions: application herbicide amount 320 g/ha. In short, it runs like this:
as §2

For data set [3], the system named is Galium spurium. Briefly: Test Example 4: herbicidal effect by soil treatment (symbol Q). As to conditions: application herbicide amount 320 g/ha. The procedure, abridged: as §2
The next data set has as its system corn. Briefly: Test Example 4: effect on crop by soil treatment (symbol c). As to conditions: application herbicide amount 320 g/ha. The procedure, abridged: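 Diluvial soil (sterilized) in boxes; seeds placed spot-wise alongside weed species; ~1.5 cm covering soil. Greenhouse, 25–30° C.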
Another data set has as its system soybean. Kind of data set: Test Example 4: effect on crop by soil treatment (symbol d). Particulars: application herbicide amount 320 g/ha. The procedure, abridged: (§3)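 Plants are raised in a greenhouse (25° C. to 30° C.) from spot-sown seed, which sits under about 1.5 cm of sterilized diluvial soil in a box shared with weed species.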
A further data set has as its system rice. Briefly: Test Example 4: effect on crop by soil treatment (symbol b). Particulars: application herbicide amount 320 g/ha. The procedure, abridged: as §3
The test system of a further data set is wheat. Briefly: Test Example 4: effect on crop by soil treatment (symbol e). Particulars: application herbicide amount 320 g/ha. The procedure, abridged:
as §3

Another data set relates to Setaria viridis. Briefly: Test Example 5: herbicidal effect by foliage application, plastic box (symbol G). As to conditions: 320 g/ha, 3 weeks after application. In short, it runs like this: (§4)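 Leaf-applied emulsion, water-diluted to a preset herbicide dose, on two-week-old seedlings raised in a 25° C. to 30° C. greenhouse; injury rated at 3 weeks using earlier criteria.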

Data set [4] concerns Alopecurus myosuroides. Briefly: Test Example 5: herbicidal effect by foliage application, plastic box (symbol J). As to conditions: 320 g/ha, 3 weeks after application. In short, it runs like this:
as §4

For a further data set, the system named is Lolium multiflorum Lam. Briefly: Test Example 5: herbicidal effect by foliage application, plastic box (symbol K). Particulars: 320 g/ha, 3 weeks after application. The procedure, abridged: as §4
The subject of data set [5] is Galium spurium. Briefly: Test Example 5: herbicidal effect by foliage application, plastic box (symbol Q). As to conditions: 320 g/ha, 3 weeks after application. The procedure, abridged:
as §4

We go through 5 compounds from US11000033B2, “Ketone or oxime compound, and herbicide” (NISSAN CHEMICAL CORPORATION, priority 2014, dated 2021).

As for `CCOC(=O)C(C(=O)c1ccccc1)C1CC(O)=C(c2c(C)cc(C)cc2C)C1=O` (stereo not drawn) [2-008], the “Herbicidal effect grade, A: Echinochloa oryzacola Vasing.” value in [1] was 0 (Herbicidal ratio of 5% or lower (almost no effect)). Moreover, the “Herbicidal effect grade, B: Scirpus juncoides” value (from here on “Herbicidal effect grade, B”) in the data set on Scirpus juncoides is given as 0 (Herbicidal ratio of 5% or lower (almost no effect)). The “Effect grade on crop, a: transplanted rice plant” value (“Effect grade on crop” for short) in the data set on transplanted rice plant is reported as 0 (Herbicidal ratio of 5% or lower (almost no effect)). Moreover, in the data set with Cyperus difformis, the “herbicidal effect on E, grade 0-5” value is on record as 0 (Herbicidal ratio of 5% or lower (almost no effect)). Besides, the “J: Alopecurus myosuroides, herbicidal effect grade” value (shortened to “J: Alopecurus myosuroides”) in the data set with Alopecurus myosuroides [2] is 0 (Herbicidal ratio of 5% or lower (almost no effect)); in the data set with Alopecurus myosuroides [4], 3 (Herbicidal ratio of 40% or higher and lower than 70%). Further, the “P: Stellaria media, herbicidal effect grade” value (“P: Stellaria media” for short) with Stellaria media is on record as 0 (Herbicidal ratio of 5% or lower (almost no effect)). For the same compound, the “Q: Galium spurium, herbicidal effect grade” value (“Q: Galium spurium” for short) in the data set with Galium spurium [3] and in the data set with Galium spurium [5] was 0 (Herbicidal ratio of 5% or lower (almost no effect)) throughout. Besides, the “c: corn, effect on crop grade” value in the data set with corn is reported as 0 (Herbicidal ratio of 5% or lower (almost no effect)). The “d: soybean, effect on crop grade” value in the data set with soybean is 0 (Herbicidal ratio of 5% or lower (almost no effect)). Besides, the “b: directly sowed rice plant, effect on crop grade” value (“b: directly sowed rice plant” below) in the data set on rice is 0 (Herbicidal ratio of 5% or lower (almost no effect)). The “e: wheat, effect on crop grade” value with wheat is 0 (Herbicidal ratio of 5% or lower (almost no effect)). Further, the “G: Setaria viridis, herbicidal effect grade” value (from here on “G: Setaria viridis”) in the data set with Setaria viridis is 3 (Herbicidal ratio of 40% or higher and lower than 70%). Moreover, the “K: Lolium multiflorum Lam., herbicidal effect grade” value in the data set on Lolium multiflorum Lam. is 4 (Herbicidal ratio of 70% or higher and lower than 90%).

Turning to `CCOC(=O)C(C(=O)C(C)C)C1CC(O)=C(c2c(C)cc(C)cc2C)C1=O` (stereo not drawn) [2-009], the “Herbicidal effect grade, A: Echinochloa oryzacola Vasing.” value in [1] is on record as 0 (Herbicidal ratio of 5% or lower (almost no effect)). Besides, in the data set with Scirpus juncoides, the “Herbicidal effect grade, B” value was 0 (Herbicidal ratio of 5% or lower (almost no effect)). In the data set on transplanted rice plant, the “Effect grade on crop” value is reported as 0 (Herbicidal ratio of 5% or lower (almost no effect)). In the data set with Cyperus difformis, the “herbicidal effect on E, grade 0-5” value is 0 (Herbicidal ratio of 5% or lower (almost no effect)). Besides, the “J: Alopecurus myosuroides” value in the data set with Alopecurus myosuroides [2] was 0 (Herbicidal ratio of 5% or lower (almost no effect)); in the data set on Alopecurus myosuroides [4], 1 (Herbicidal ratio of 5% or higher and lower than 20%). Further, in the data set with Stellaria media, the “P: Stellaria media” value is on record as 0 (Herbicidal ratio of 5% or lower (almost no effect)). Moreover, the “Q: Galium spurium” value in the data set with Galium spurium [3] and in the data set on Galium spurium [5] was 0 (Herbicidal ratio of 5% or lower (almost no effect)) each time. For the same compound, the “c: corn, effect on crop grade” value in the data set with corn is on record as 0 (Herbicidal ratio of 5% or lower (almost no effect)). Besides, the “d: soybean, effect on crop grade” value with soybean is listed as 0 (Herbicidal ratio of 5% or lower (almost no effect)). The “b: directly sowed rice plant” value in the data set on rice is recorded as 5 (Herbicidal ratio of 90% or more (almost completely withered)). In the data set with wheat, the “e: wheat, effect on crop grade” value is listed as 0 (Herbicidal ratio of 5% or lower (almost no effect)). In the data set on Setaria viridis, the “G: Setaria viridis” value is 0 (Herbicidal ratio of 5% or lower (almost no effect)). Also, in the data set with Lolium multiflorum Lam., the “K: Lolium multiflorum Lam., herbicidal effect grade” value is 1 (Herbicidal ratio of 5% or higher and lower than 20%).

For the compound `CCOC(=O)C(C(=O)C(F)(F)F)C1CC(O)=C(c2c(C)cc(C)cc2C)C1=O` (stereo not drawn) [2-010], in data set [1], the “Herbicidal effect grade, A: Echinochloa oryzacola Vasing.” value is on record as 0 (Herbicidal ratio of 5% or lower (almost no effect)). Further, the “Herbicidal effect grade, B” value in the data set with Scirpus juncoides was 0 (Herbicidal ratio of 5% or lower (almost no effect)). For the same compound, in the data set on transplanted rice plant, the “Effect grade on crop” value is recorded as 0 (Herbicidal ratio of 5% or lower (almost no effect)). In the data set on Cyperus difformis, the “herbicidal effect on E, grade 0-5” value is reported as 0 (Herbicidal ratio of 5% or lower (almost no effect)). Besides, the “J: Alopecurus myosuroides” value in the data set with Alopecurus myosuroides [2] and in the data set with Alopecurus myosuroides [4] was 0 (Herbicidal ratio of 5% or lower (almost no effect)) throughout. For the same compound, the “P: Stellaria media” value in the data set with Stellaria media is recorded as 0 (Herbicidal ratio of 5% or lower (almost no effect)). For the same compound, the “Q: Galium spurium” value in the data set on Galium spurium [3] and with Galium spurium [5] was 0 (Herbicidal ratio of 5% or lower (almost no effect)) each time. Further, the “c: corn, effect on crop grade” value with corn was 0 (Herbicidal ratio of 5% or lower (almost no effect)). For the same compound, the “d: soybean, effect on crop grade” value in the data set on soybean is given as 0 (Herbicidal ratio of 5% or lower (almost no effect)). For the same compound, in the data set with rice, the “b: directly sowed rice plant” value is recorded as 0 (Herbicidal ratio of 5% or lower (almost no effect)). In addition, the “e: wheat, effect on crop grade” value in the data set with wheat is 0 (Herbicidal ratio of 5% or lower (almost no effect)). Moreover, the “G: Setaria viridis” value in the data set on Setaria viridis is recorded as 0 (Herbicidal ratio of 5% or lower (almost no effect)). The “K: Lolium multiflorum Lam., herbicidal effect grade” value in the data set on Lolium multiflorum Lam. was 0 (Herbicidal ratio of 5% or lower (almost no effect)).

On to `CCOC(=O)C(C(=O)c1ccccn1)C1CC(O)=C(c2c(C)cc(C)cc2C)C1=O` (stereo not drawn) [2-013], for which the “Herbicidal effect grade, A: Echinochloa oryzacola Vasing.” value in [1] was 0 (Herbicidal ratio of 5% or lower (almost no effect)). The “Herbicidal effect grade, B” value in the data set with Scirpus juncoides is recorded as 0 (Herbicidal ratio of 5% or lower (almost no effect)). The “Effect grade on crop” value in the data set on transplanted rice plant is 0 (Herbicidal ratio of 5% or lower (almost no effect)). For the same compound, in the data set with Cyperus difformis, the “herbicidal effect on E, grade 0-5” value is 0 (Herbicidal ratio of 5% or lower (almost no effect)). The “J: Alopecurus myosuroides” value with Alopecurus myosuroides [2] is 0 (Herbicidal ratio of 5% or lower (almost no effect)); in the data set with Alopecurus myosuroides [4] it was 5 (Herbicidal ratio of 90% or more (almost completely withered)). Besides, the “P: Stellaria media” value with Stellaria media is recorded as 0 (Herbicidal ratio of 5% or lower (almost no effect)). The “Q: Galium spurium” value is 0 (Herbicidal ratio of 5% or lower (almost no effect)) in the data set on Galium spurium [3]; 1 (Herbicidal ratio of 5% or higher and lower than 20%) in the data set with Galium spurium [5]. Besides, the “c: corn, effect on crop grade” value in the data set with corn is recorded as 0 (Herbicidal ratio of 5% or lower (almost no effect)). Also, in the data set on soybean, the “d: soybean, effect on crop grade” value was 0 (Herbicidal ratio of 5% or lower (almost no effect)). In the data set with rice, the “b: directly sowed rice plant” value is reported as 5 (Herbicidal ratio of 90% or more (almost completely withered)). Moreover, the “e: wheat, effect on crop grade” value in the data set with wheat is 0 (Herbicidal ratio of 5% or lower (almost no effect)). Moreover, the “G: Setaria viridis” value in the data set on Setaria viridis was 5 (Herbicidal ratio of 90% or more (almost completely withered)). The “K: Lolium multiflorum Lam., herbicidal effect grade” value in the data set with Lolium multiflorum Lam. was 5 (Herbicidal ratio of 90% or more (almost completely withered)).

For `CCOC(=O)C(C(=O)CC1CC1)C1CC(O)=C(c2c(C)cc(C)cc2C)C1=O` (stereo not drawn) [2-025], the “Herbicidal effect grade, A: Echinochloa oryzacola Vasing.” value in data set [1] is 3 (Herbicidal ratio of 40% or higher and lower than 70%). Moreover, in the data set on Scirpus juncoides, the “Herbicidal effect grade, B” value is 0 (Herbicidal ratio of 5% or lower (almost no effect)). Also, the “Effect grade on crop” value in the data set with transplanted rice plant was 2 (Herbicidal ratio of 20% or higher and lower than 40%). The “herbicidal effect on E, grade 0-5” value in the data set on Cyperus difformis is 0 (Herbicidal ratio of 5% or lower (almost no effect)). Further, the “J: Alopecurus myosuroides” value was 0 (Herbicidal ratio of 5% or lower (almost no effect)) in the data set on Alopecurus myosuroides [2]; 4 (Herbicidal ratio of 70% or higher and lower than 90%) with Alopecurus myosuroides [4]. Also, the “P: Stellaria media” value in the data set with Stellaria media is 0 (Herbicidal ratio of 5% or lower (almost no effect)). Besides, the “Q: Galium spurium” value in the data set on Galium spurium [3] and in the data set with Galium spurium [5] was 0 (Herbicidal ratio of 5% or lower (almost no effect)) throughout. In the data set on corn, the “c: corn, effect on crop grade” value is listed as 0 (Herbicidal ratio of 5% or lower (almost no effect)). Further, the “d: soybean, effect on crop grade” value in the data set on soybean is given as 0 (Herbicidal ratio of 5% or lower (almost no effect)). In the data set with rice, the “b: directly sowed rice plant” value is 5 (Herbicidal ratio of 90% or more (almost completely withered)). In the data set with wheat, the “e: wheat, effect on crop grade” value is listed as 0 (Herbicidal ratio of 5% or lower (almost no effect)). The “G: Setaria viridis” value with Setaria viridis was 5 (Herbicidal ratio of 90% or more (almost completely withered)). In addition, the “K: Lolium multiflorum Lam., herbicidal effect grade” value in the data set with Lolium multiflorum Lam. is 5 (Herbicidal ratio of 90% or more (almost completely withered)).
